Measured values as given in patent publication US11596611B2, “Hepatitis B antiviral agents” (ENANTA PHARMACEUTICALS, INC., priority 2017, dated 2023).

Columns and labels:
[1] = tested on: HBV; experiment: HepAD38 antiviral assay: reduction of viral product accumulation (virion DNA by qPCR, HBsAg or HBeAg by ELISA); type: cell-based, hepatitis B virus; settings: Hepatitis B virus, 120 h; HepAD38 cells, five days after compound addition; 50% reduction of viral product vs no drug controls; read-out: HepAD38 EC50
How it was run: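 Tetracycline-free HepAD38 cells exposed to compound (DMSO stock diluted 1:200) for 5 days, or 8 days with media and compound refreshed on d2 and d5. Virion DNA quantified by qPCR after lysis; HBsAg or HBeAg measured by ELISA on diluted samples.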

[2] = Compound toxicity by ATPLite (total ATP levels); type: cell-based; settings: human, three days after compound addition, 50% reduction of total ATP
Experimental: Methods: HepAD38 cells are maintained as previously reported (Ladner et al, Antimicrob. Agents Chemother. 1997, […], 1715). Briefly, cells are passaged upon attaining confluency in DMEM/F12 media in the presence of 10% FBS, Penn/Strep, 250 μg/mL G418, and 1 ug/ml tetracycline. Novel compounds are screened by first washing cells three times with PBS to remove tetracycline, and plating in 96 well plates at 35,000 cells/well. Compounds dissolved in DMSO are then diluted 1:200 into wells containing cells. Five days after compound addition, material is harvested for analysis. For an extended 8 days analysis, cells are plated and treated as described above, but media and compound are refreshed on d2 and d5 post initial treatment.
Compound toxicity is evaluated by seeding cells at 15,000 cells/well and treating with compound as described above.

Row | Compound | EC50 [1] | CC50 at 3 days ([2]; numeric bounds) | CC50 at 3 days ([2]; class symbols)
1 | C=CCNC(=O)C[C@]1(O)C2CCC1C[C@@H](S(=O)(=O)c1cc(C(=O)Nc3cc(F)c(F)c(F)c3)ccc1Cl)C2 [Example 58] | < 104 nM | > 12500 nM | –
2 | [N-]=[N+]=NCC(O)[C@]1(O)C2CCC1C[C@@H](S(=O)(=O)c1cc(C(=O)Nc3cc(F)c(F)c(F)c3)ccc1Cl)C2 (mixture of isomers) [Example 11] | < 104 nM | > 6250 nM | –
3 | O=C(Nc1ccc(F)c(F)c1)c1ccc(Cl)c(S(=O)(=O)[C@@H]2CC3CC[C@@H](C2)[C@@]3(O)C(O)c2cnoc2)c1 (stereo partly drawn) [Example 303] | < 104 nM | – | > 25000 nM
4 | Cc1cc(Cl)c(S(=O)(=O)[C@H]2CC3CCC(C2)[C@]3(O)[C@H](O)[C@H](C)O)cc1C(=O)Nc1ccc(F)c(F)c1 [Example 335] | < 104 nM | – | > 25000 nM
5 | Cc1ccnc(C(O)[C@@]2(O)C3CC[C@H]2C[C@H](S(=O)(=O)c2cc(C(=O)Nc4ccc(F)c(F)c4)ccc2Cl)C3)c1 (stereo partly drawn) [Example 296] | < 104 nM | – | > 25000 nM
6 | O=C(Nc1cc(F)c(F)c(F)c1)c1ccc(Cl)c(S(=O)(=O)[C@H]2CC3CCC(C2)[C@@]3(O)C(O)CO)c1 (mixture of isomers) [Example 10] | < 104 nM | > 12500 nM | –
7 | Cc1cccc(C(O)[C@@]2(O)C3CC[C@H]2C[C@H](S(=O)(=O)c2cc(C(=O)Nc4ccc(F)c(F)c4)ccc2Cl)C3)n1 (stereo partly drawn) [Example 294] | < 104 nM | – | > 25000 nM
8 | O=C(C[C@]1(O)C2CCC1C[C@@H](S(=O)(=O)c1cc(C(=O)Nc3cc(F)c(F)c(F)c3)ccc1Cl)C2)NC1(CO)CC1 [Example 117] | < 104 nM | > 6250 nM | –
9 | CC(C)(O)CNC(=O)C[C@]1(O)C2CCC1C[C@@H](S(=O)(=O)c1cc(C(=O)Nc3cc(F)c(F)c(F)c3)ccc1Cl)C2 [Example 71] | < 104 nM | > 3000 nM | –
10 | C[C@@H](O)[C@@H](O)[C@@]1(O)C2CC[C@H]1C[C@H](S(=O)(=O)c1cc(C(=O)Nc3cc(F)c(F)c(F)c3)ccc1Cl)C2 (single isomer, unassigned) [Example 136] | < 104 nM | > 12500 nM | –
11 | O=C(Nc1ccc(F)c(F)c1)c1ccc(Cl)c(S(=O)(=O)[C@@H]2CC3CC[C@@H](C2)[C@@]3(O)C(O)c2nccs2)c1 (stereo partly drawn) [Example 302] | < 104 nM | – | > 25000 nM
12 | C[C@H](O)CNC(=O)C[C@]1(O)C2CCC1C[C@@H](S(=O)(=O)c1cc(C(=O)Nc3cc(F)c(F)c(F)c3)ccc1Cl)C2 [Example 112] | < 104 nM | > 6250 nM | –
13 | C[C@@H](O)[C@@H](O)[C@]1(O)C2CCC1C[C@@H](S(=O)(=O)c1cc(C(=O)Nc3ccc(F)c(F)c3)ccc1Cl)C2 (mixture of isomers) [Example 172] | < 104 nM | – | > 25000 nM
14 | C[C@@H](O)COC[C@]1(O)C2CCC1C[C@@H](S(=O)(=O)c1cc(C(=O)Nc3cc(F)c(F)c(F)c3)ccc1Cl)C2 (single isomer, unassigned) [Example 130] | < 104 nM | > 12500 nM | –
15 | CN1CCC[C@@H]1C(=O)NC[C@]1(O)C2CCC1C[C@@H](S(=O)(=O)c1cc(C(=O)Nc3cc(F)c(F)c(F)c3)ccc1Cl)C2 [Example 1] | < 104 nM | > 3000 nM | –
16 | C[C@H](O)CNC(=O)C[C@]1(O)C2CCC1C[C@@H](S(=O)(=O)c1cc(C(=O)Nc3ccc(F)c(C(F)F)c3)ccc1Cl)C2 [Example 129] | < 104 nM | – | > 25000 nM
17 | O=C(Nc1cc(F)c(F)c(F)c1)c1ccc(Cl)c(S(=O)(=O)[C@H]2CC3CCC(C2)[C@]3(O)CC(=O)N2CC(O)C2)c1 [Example 92] | < 104 nM | > 6250 nM | –
18 | O=C(Nc1ccc(F)c(F)c1)c1ccc(Cl)c(S(=O)(=O)[C@H]2CC3CCC(C2)[C@]3(O)[C@@H](O)c2cccnc2)c1 (single isomer, unassigned) [Example 285a] | < 104 nM | – | > 25000 nM
19 | O=C(Nc1cc(F)c(F)c(F)c1)c1ccc(Cl)c(S(=O)(=O)[C@H]2CC3CCC(C2)[C@]3(O)CNC(=O)c2ncco2)c1 [Example 88] | < 104 nM | > 6250 nM | –
20 | C[C@@H](O)[C@H](O)COC[C@]1(O)C2CCC1C[C@@H](S(=O)(=O)c1cc(C(=O)Nc3cc(F)c(F)c(F)c3)ccc1Cl)C2 (single isomer, unassigned) [Example 163] | < 104 nM | – | > 25000 nM
21 | C=C1CC1C(=O)NC[C@@]1(O)C2CC[C@H]1C[C@H](S(=O)(=O)c1cc(C(=O)Nc3cc(F)c(F)c(F)c3)ccc1Cl)C2 (stereo partly drawn) [Example 66] | < 104 nM | – | 10000 to 25000 nM
